The record followed here is patent US20240010726A1, “LFA-1 SIGNALLING MEDIATOR FOR USE IN CANCER THERAPY” (Universität Basel, priority 2020, published 2024).

Each structure is given as a SMILES string.

One test deals with human EM CD8 T cells. The experiment in a line: Cytometric bead array of cytokines in EM CD8 T cell culture supernatants. It is filed as cell-based. The settings on record: Mg^2+-restricted (0 mM) vs 1.2 mM Mg^2+; 24 h. Here is the method: FIG. 2: Extracellular magnesium promotes memory-specific activation via LFA-1. Glycolytic switch of human EM CD8 T cells (a) and naïve CD8 T cells (b) subsets upon injection of anti-CD3 Ab only, or anti-CD3 and anti-CD28 Ab, was assessed by metabolic flux analysis in medium containing either 1.2 mM Mg^2+, 0 mM Mg^2+, or medium which was reconstituted from 0 mM to 1.2 mM Mg^2+ immediately prior to activation (0→1.2 mM Mg^2+). (a) Results for human effector memory (EM) and (b) for human naïve CD8 T cells. Glycolytic switch was quantified by subtracting […] measurements. (c) Flow cytometric analysis of surface activation markers on human EM CD8 T cells 24 hours after activation by plate-bound anti-CD3 Ab and soluble anti-CD28 Ab, in 1.2 mM and 0 mM Mg^2+ media, respectively. (d) Abundance of inflammatory cytokines in corresponding EM CD8 T cell culture supernatants, determined by CBA. (e) CD11a (LFA-1) surface expression on human naïve and EM CD8 T cells as well PHA T cell blasts. Flow cytometry-based assessment of total LFA-1 expression assessed by mAb TS2/4 (f), closed conformation of αL by mAb HI111 (g), extended conformation of LFA-1 by mAb Kim127 (h), open head-piece conformation of LFA-1 by mAb m24 (i), phosphorylation of focal adhesion kinase (FAK) […] as well TNF expression (k)±TCR-induced activation in different extracellular Mg^2+ concentrations. (l) Flow cytometry-based assessment of LFA-1 with open-head piece conformation on human EM and naïve CD8 T cells using the open head-piece reporter mAb m24. (m) Assessment of glycolytic switch of EM CD8 T cells. (n) Assessment of glycolytic switch of naïve CD8 T cells. […] Cytokine concentrations in cell culture supernatants were determined using the LegendPlex cytrometric bead Array human […]) according to manufacturer's instructions.

The test system of test [1] is WT and LFA-1^−/− Jurkat T cells. The experiment in a line: Calcium flux assay in WT and LFA-1−/− Jurkat T cells. Format: cell-based, human. The protocol: FIG. 3: Magnesium regulates LFA-1 mediated T cell activation and cytotoxicity as well BiTE- and CAR T-cell functionality. (a) Glycolytic switch of murine WT and LFA-1^−/− CTLs upon injection of anti-CD3/28 Ab in medium containing 1.2 mM Mg^2+ and 0 mM Mg^2+, presented as quantification of summarized data with n=4 mice. (b) Calcium flux in WT and LFA-1^−/− Jurkat T cells stimulated with anti-CD3 Ab in 1.2 mM and 0 mM Mg^2+ medium, respectively. Cells were loaded with Fluo4, and signal intensity as recorded by plate reader, was normalized to unstimulated baseline values. […] Quantified results of n=3 mice with 3 technical replicates each. […] The effector to target cell ratio was 3:1. Results are quantified of n=3 mice with 3 technical replicates each. (e) Representative CD11a (LFA-1) surface expression on human naïve and EM CD8 T cells, PHA T cell blasts and REP T cells, assessed by flow cytometry. […] The effector to target cell ratio was 1:1. Data is presented as quantified results of n=5 healthy donors (f, g, h), n=3 healthy donors with 2 technical replicates each or n=1 healthy donor with 4 technical replicates (j). […] The effector to target cell ratio was 1:1. Data is presented as quantified results of n=1 healthy donor with 4 technical replicates. […] (n) Representative histogram of CD11a expression on PHA-blasts, untransduced T cells as well anti-CD19 expressing CAR T cells. […] Pooled results of n=6 from 2 independent experiments are shown. (p) Abundance of IFNγ in cell culture supernatants corresponding to the conditions depicted in (o) at 24 hours was determined by ELISA (n=8, 3 independent experiments). (q) Tumor growth curves of mice placed on either Mg^2+-depleted diet or respective control diet and treated with either anti-PSMA CAR T cells, untransduced T cells or saline solution. Representative of n=2 independent experiments with n=6 mice per group. Jurkat T cells were loaded with Fluo4 (Invitrogen) at a final concentration of 2 μM in Mg^2+ free self-made medium for 30 min at 37° C. […] Fluorescence intensity over time was measure with a Tecan Spark M10 plate reader. […]

[2] abbreviates: anti-CD3 Ab, 0 mM vs 1.2 mM Mg^2+.

For the molecule `[Mg+2]` [Mg^2+, Magnesium], in the test on human EM CD8 T cells, the IFNγ secretion entry is “decreased production”, the IL-2 secretion result was “decreased production” and the TNF secretion entry is “decreased production”. Moreover, in test [1] (setting [2]), the “Ca^2+ influx in LFA-1^−/− Jurkat T cells” value was “independent from extracellular Mg^2+ concentrations” and the “Ca^2+ influx in WT Jurkat T cells” value was “decreased Ca^2+ influx”. Further, in test [1] (extracellular Mg^2+ depletion), the “Prolonged, sustained Ca^2+ influx” value is given as “absence of prolonged, sustained Ca^2+ influx”.
